According to paper PMC6277767, “Broad and Region-Specific Impacts of the Synthetic Cannabinoid CP 55,940 in Adolescent and Adult Female Mouse Brains” (Frontiers in Molecular Neuroscience, 2018):

Tested on: CD1 female mouse brain lipidome
Assay: Brain-region lipid levels (HPLC/MS/MS lipidomics) 2 h after single i.p. 3 mg/kg CP 55,940 vs vehicle
Type: in vivo
Description: The Bloomington Institutional Animal Care and Use Committee of Indiana University reviewed and approved the animal procedures. Female mice from the CD1 strain were utilized to match our study examining THC’s effects on the brain lipidome ([Leishman et al., 2018]). Mice were given a single i.p. injection of either 3 mg/kg CP or 1:1:18 cremophor:ethanol:saline vehicle (please refer to the section “3 mg/kg CP Is Relevant for Synthetic Cannabinoid Abuse and Has Stronger Effects on the Female Mouse Brain Lipidome During Adolescence” for a justification of dose and use of female mice). Three different age groups were given injections: PND 35 and PND 50 adolescents, and adult mice (PND 113). At least eight mice in each age group received CP and at least eight received vehicle. Matching the THC study time course ([Leishman et al., 2018]), mice were sacrificed via rapid decapitation 2 h after injection. Brains were immediately removed and flash-frozen in liquid nitrogen, and then stored at -80°C until dissections were performed. Brains were dissected on an ice-cold dissection plate into the following regions: STR, HIPP, CER, THAL, CTX, HYP, MID, and STEM. These abbreviations for these brain areas will be used exclusively when discussing the results generated by these specific dissections. Each dissected area was immediately placed in liquid nitrogen and then stored at -80°C until used for lipid extraction.
Tissue extracts were performed as previously described ([Bradshaw et al., 2006]; [Stuart et al., 2013]; [Raboune et al., 2014]; [Leishman et al., 2016a],[b], [2017], [2018]). First, samples were shock frozen in liquid nitrogen, weighed, and transferred to a centrifuge tube. The mass of the largest sample was multiplied by 50 to determine how many milliliters of HPLC-grade methanol (Fisher, Fair Lawn, NJ, United States) to add. Then, samples were spiked with 500 pmol deuterium-labeled NAGly (d8NAGly; Cayman Chemical, Ann Arbor, MI, United States). Samples were placed on ice in darkness for 2 h then individually homogenized and centrifuged at 19,000 × g for 20 min at 20°C. Supernatants were diluted with HPLC water (purified in house) to make a solution of 75% water, 25% supernatant. Lipids were partially purified on C18 solid phase extraction columns (Agilent, Palo Alto, CA, United States). A series of four elutions with 1.5 mL of 60%, 75%, 85%, and 100% methanol were collected ([Stuart et al., 2013]; [Leishman et al., 2016a],[b], [2018]).
As previously described ([Bradshaw et al., 2006]; [Tan et al., 2006]; [Smoum et al., 2010]; [Stuart et al., 2013]; [Tortoriello et al., 2013]; [Raboune et al., 2014]; [Leishman et al., 2016a],[b], [2017], [2018]), samples were analyzed using an Applied Biosystems API 3000 triple quadrupole mass spectrometer with electrospray ionization (Foster City, CA, United States). Using an Agilent XDB-C18 reversed phase analytical column and optimized mobile phase gradients, 20 μL from each elution were chromatographed. Two Shimadzu 10ADvp pumps (Columbia, MD, United States) provided the pressure for gradient elution. Mobile phase A: 20% methanol, 80% water (v/v) and 1 mM ammonium acetate (Sigma, St. Louis, MO, United States). Mobile phase B: 100% methanol, 1 mM ammonium acetate. Every method run began with 0% mobile phase B, reached 100% mobile phase B flowing at 0.2 mL/min, and gradually returned to 0% mobile phase B.
This screening library will be referred to as the lipidome when discussing data from this study. HPLC/MS/MS data were analyzed using Analyst software (Applied Biosystems) ([Bradshaw et al., 2006]; [Tan et al., 2006]; [Stuart et al., 2013]; [Tortoriello et al., 2013]; [Raboune et al., 2014]; [Leishman et al., 2016a],[b], [2017], [2018]). Chromatograms (Supplementary Figure 3) were generated by determining the retention time of analytes from the analytical column with a [M-1] or [M+1] parent peak and a fragmentation peak corresponding to the programmed values. […]

[1] = striatum, adult, 3 mg/kg CP 55,940, one-way ANOVA p .007
[2] = striatum, adult, 3 mg/kg CP 55,940, one-way ANOVA p .015
[3] = striatum, adult, 3 mg/kg CP 55,940, one-way ANOVA p .017
[4] = striatum, adult, 3 mg/kg CP 55,940, one-way ANOVA p .019
[5] = striatum, adult, 3 mg/kg CP 55,940, one-way ANOVA p .043
[6] = striatum, adult, 3 mg/kg CP 55,940, one-way ANOVA p .071
[7] = striatum, adult, 3 mg/kg CP 55,940, one-way ANOVA p .075
[8] = striatum, PND 35, 3mg/kg CP 55,940
[9] = thalamus, PND 50, 3 mg/kg CP 55,940

Structure (SMILES): CCCCCCC(C)(C)c1ccc([C@@H]2C[C@H](O)CC[C@H]2CCCO)c(O)c1 [CP 55,940]
- N-docosahexaenoyl ethanolamine, Direction (relative to Veh) [1]: ↓
- N-docosahexaenoyl ethanolamine, Magnitude (x Veh level) [1]: 0.75 x Veh level
- N-linoleoyl ethanolamine, Direction (relative to Veh) [2]: ↓
- N-linoleoyl ethanolamine, Magnitude (x Veh level) [2]: 0.68 x Veh level
- N-arachidonoyl ethanolamine, Direction (relative to Veh) [3]: ↓
- N-arachidonoyl ethanolamine, Magnitude (x Veh level) [3]: 0.66 x Veh level
- Arachidonic acid, Direction (relative to Veh) [4]: ↓
- Arachidonic acid, Magnitude (x Veh level) [4]: 0.87 x Veh level
- N-oleoyl ethanolamine, Direction (relative to Veh) [5]: ↓
- N-oleoyl ethanolamine, Magnitude (x Veh level) [5]: 0.65 x Veh level
- N-oleoyl leucine Direction (relative to Veh) [5]: ↑
- N-oleoyl leucine Magnitude (x Veh level) [5]: 1.20 x Veh level
- 2-arachidonoyl glycerol, Direction (relative to Veh) [6]: ↓
- 2-arachidonoyl glycerol, Magnitude (x Veh level) [6]: 0.78 x Veh level
- N-palmitoyl serine, Direction (relative to Veh) [7]: ↓
- N-palmitoyl serine, Magnitude (x Veh level) [7]: 0.79 x Veh level
- 2-arachidonoyl glycerol: Direction (relative to Veh) [8]: ↓
- 2-arachidonoyl glycerol: Magnitude (x Veh level) [8]: 0.70 x Veh level
- 2-linoleoyl glycerol: Direction (relative to Veh) [8]: ↓
- 2-linoleoyl glycerol: Magnitude (x Veh level) [8]: 0.57 x Veh level
- 2-oleoyl glycerol: Direction (relative to Veh) [8]: ↓
- 2-oleoyl glycerol: Magnitude (x Veh level) [8]: 0.86 x Veh level
- N-arachidonoyl GABA: Direction (relative to Veh) [8]: ↓
- N-arachidonoyl GABA: Magnitude (x Veh level) [8]: 0.66 x Veh level
- N-arachidonoyl alanine: Direction (relative to Veh) [8]: ↓
- N-arachidonoyl alanine: Magnitude (x Veh level) [8]: 0.77 x Veh level
- N-arachidonoyl glycine: Direction (relative to Veh) [8]: ↓
- N-arachidonoyl glycine: Magnitude (x Veh level) [8]: 0.87 x Veh level
- N-arachidonoyl phenylalanine: Direction (relative to Veh) [8]: ↓
- N-arachidonoyl phenylalanine: Magnitude (x Veh level) [8]: 0.83 x Veh level
- N-arachidonoyl serine: Direction (relative to Veh) [8]: ↓
- N-arachidonoyl serine: Magnitude (x Veh level) [8]: 0.64 x Veh level
- N-arachidonoyl taurine: Direction (relative to Veh) [8]: ↓
- N-arachidonoyl taurine: Magnitude (x Veh level) [8]: 0.91 x Veh level
- N-arachidonoyl tyrosine: Direction (relative to Veh) [8]: ↓
- N-arachidonoyl tyrosine: Magnitude (x Veh level) [8]: 0.77 x Veh level
- N-docosahexaenoyl GABA: Direction (relative to Veh) [8]: ↓
- N-docosahexaenoyl GABA: Magnitude (x Veh level) [8]: 0.68 x Veh level
- N-docosahexaenoyl alanine: Direction (relative to Veh) [8]: ↓
- N-docosahexaenoyl alanine: Magnitude (x Veh level) [8]: 0.72 x Veh level
- N-docosahexaenoyl ethanolamine: Direction (relative to Veh) [8]: ↓
- N-docosahexaenoyl ethanolamine: Magnitude (x Veh level) [8]: 0.74 x Veh level
- N-docosahexaenoyl leucine: Direction (relative to Veh) [8]: ↑
- N-docosahexaenoyl leucine: Magnitude (x Veh level) [8]: 1.46 x Veh level
- N-docosahexaenoyl serine: Direction (relative to Veh) [8]: ↓
- N-docosahexaenoyl serine: Magnitude (x Veh level) [8]: 0.68 x Veh level
- N-oleoyl GABA: Direction (relative to Veh) [8]: ↓
- N-oleoyl GABA: Magnitude (x Veh level) [8]: 0.76 x Veh level
- N-oleoyl alanine: Direction (relative to Veh) [8]: ↓
- N-oleoyl alanine: Magnitude (x Veh level) [8]: 0.89 x Veh level
- N-oleoyl ethanolamine: Direction (relative to Veh) [8]: ↓
- N-oleoyl ethanolamine: Magnitude (x Veh level) [8]: 0.60 x Veh level
- N-oleoyl glycine: Direction (relative to Veh) [8]: ↓
- N-oleoyl glycine: Magnitude (x Veh level) [8]: 0.88 x Veh level
- N-palmitoyl ethanolamine: Direction (relative to Veh) [8]: ↓
- N-palmitoyl ethanolamine: Magnitude (x Veh level) [8]: 0.72 x Veh level
- N-palmitoyl leucine: Direction (relative to Veh) [8]: ↑
- N-palmitoyl leucine: Magnitude (x Veh level) [8]: 1.17 x Veh level
- N-palmitoyl valine: Direction (relative to Veh) [8]: ↑
- N-palmitoyl valine: Magnitude (x Veh level) [8]: 1.68 x Veh level
- N-stearoyl alanine: Direction (relative to Veh) [8]: ↓
- N-stearoyl alanine: Magnitude (x Veh level) [8]: 0.90 x Veh level
- N-stearoyl leucine: Direction (relative to Veh) [8]: ↓
- N-stearoyl leucine: Magnitude (x Veh level) [8]: 0.81 x Veh level
- N-stearoyl serine: Direction (relative to Veh) [8]: ↓
- N-stearoyl serine: Magnitude (x Veh level) [8]: 0.86 x Veh level
- N-stearoyl valine: Direction (relative to Veh) [8]: ↑
- N-stearoyl valine: Magnitude (x Veh level) [8]: 1.43 x Veh level
- PGE2: Direction (relative to Veh) [8]: ↑
- PGE2: Magnitude (x Veh level) [8]: 1.25 x Veh level
- PGF2α: Direction (relative to Veh) [8]: ↑
- PGF2α: Magnitude (x Veh level) [8]: 1.30 x Veh level
- 2-arachidonoyl glycerol: Direction (relative to Veh) [9]: ↓
- 2-arachidonoyl glycerol: Magnitude (x Veh level) [9]: 0.84 x Veh level
- 2-linoleoyl glycerol: Direction (relative to Veh) [9]: ↓
- 2-linoleoyl glycerol: Magnitude (x Veh level) [9]: 0.68 x Veh level
- 2-oleoyl glycerol: Direction (relative to Veh) [9]: ↓
- 2-oleoyl glycerol: Magnitude (x Veh level) [9]: 0.78 x Veh level
- 6-ketoPGF1α: Direction (relative to Veh) [9]: ↑
- 6-ketoPGF1α: Magnitude (x Veh level) [9]: 1.52 x Veh level
- Arachidonic acid: Direction (relative to Veh) [9]: ↓
- Arachidonic acid: Magnitude (x Veh level) [9]: 0.77 x Veh level
- Linoleic acid: Direction (relative to Veh) [9]: ↓
- Linoleic acid: Magnitude (x Veh level) [9]: 0.73 x Veh level
- N-arachidonoyl GABA: Direction (relative to Veh) [9]: ↓
- N-arachidonoyl GABA: Magnitude (x Veh level) [9]: 0.68 x Veh level
- N-arachidonoyl ethanolamine: Direction (relative to Veh) [9]: ↓
- N-arachidonoyl ethanolamine: Magnitude (x Veh level) [9]: 0.85 x Veh level
- N-arachidonoyl glycine: Direction (relative to Veh) [9]: ↓
- N-arachidonoyl glycine: Magnitude (x Veh level) [9]: 0.63 x Veh level
- N-arachidonoyl phenylalanine: Direction (relative to Veh) [9]: ↓
- N-arachidonoyl phenylalanine: Magnitude (x Veh level) [9]: 0.51 x Veh level
- N-arachidonoyl taurine: Direction (relative to Veh) [9]: ↓
- N-arachidonoyl taurine: Magnitude (x Veh level) [9]: 0.88 x Veh level
- N-arachidonoyl tyrosine: Direction (relative to Veh) [9]: ↓
- N-arachidonoyl tyrosine: Magnitude (x Veh level) [9]: 0.78 x Veh level
- N-docosahexaenoyl GABA: Direction (relative to Veh) [9]: ↓
- N-docosahexaenoyl GABA: Magnitude (x Veh level) [9]: 0.70 x Veh level
- N-linoleoyl GABA: Direction (relative to Veh) [9]: ↓
- N-linoleoyl GABA: Magnitude (x Veh level) [9]: 0.57 x Veh level
- N-palmitoyl leucine: Direction (relative to Veh) [9]: ↑
- N-palmitoyl leucine: Magnitude (x Veh level) [9]: 1.27 x Veh level
